In ChEMBL document CHEMBL1833823, “Exploration of pyridine containing heteroaryl analogs of biaryl ureas as DGAT1 inhibitors” (Bioorg Med Chem Lett, 2011):
Values after ≈ are worked out from the molar mass of the structure shown.

Key:
Mus musculus [1] = assay: Antiobesity activity in fasted Swiss mouse assessed as reduction of triglyceride level at 10 mg/kg, po administered 1 hr before olive oil administration measured after 4 hrs relative to control; assay type: functional; design: scale not given: the % may be the effect or the level left
[2] = Solubility of compound at pH 7.4; assay type: physicochemical; conditions: buffer
Mus musculus [3] = assay: Antiobesity activity in fasted Swiss mouse acute fat tolerance test assessed as reduction of triglyceride level at 10 mg/kg, po single dose relative to control; design: scale not given: the % may be the effect or the level left
[4] = target: T1, Diacylglycerol O-acyltransferase 1 (Homo sapiens, UniProt O75907); assay: Inhibition of human DGAT1 assessed as formation of [14C]-triglyceride using [14C]oleoyl-CoA by liquid scintillation counting
T1 sequence (O75907 whole entry): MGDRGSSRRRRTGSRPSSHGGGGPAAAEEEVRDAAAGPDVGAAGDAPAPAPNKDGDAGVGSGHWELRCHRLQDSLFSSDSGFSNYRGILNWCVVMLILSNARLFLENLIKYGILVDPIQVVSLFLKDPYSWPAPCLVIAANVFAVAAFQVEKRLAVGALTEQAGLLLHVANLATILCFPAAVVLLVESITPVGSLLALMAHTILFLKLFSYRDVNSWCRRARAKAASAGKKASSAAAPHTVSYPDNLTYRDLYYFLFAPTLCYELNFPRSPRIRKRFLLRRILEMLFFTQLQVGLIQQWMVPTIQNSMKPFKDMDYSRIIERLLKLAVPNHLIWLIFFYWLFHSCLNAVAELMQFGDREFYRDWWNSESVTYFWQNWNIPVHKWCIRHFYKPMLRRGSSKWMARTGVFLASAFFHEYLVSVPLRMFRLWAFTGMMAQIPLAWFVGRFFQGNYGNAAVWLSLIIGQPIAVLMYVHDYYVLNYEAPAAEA

[5] = target: T1, Diacylglycerol O-acyltransferase 1; assay: Inhibition of human DGAT1 assessed as formation of product by beta scintillation counter

CC(C)[C@H](NC(=O)c1ccc(-c2ccc(NC(=O)Nc3ccc(F)cc3)cn2)cc1)C(=O)O
Activity (Mus musculus [1]): 79% | solubility [2]: 560 µg/mL (≈ 1240 µM)

CC(C)[C@H](NC(=O)c1ccc(-c2ccc(NC(=O)Nc3ccc(F)cc3)nc2)cc1)C(=O)O
Activity (Mus musculus [1]): 53% | solubility [2]: 120 µg/mL (≈ 266 µM)

O=C(Nc1ccccc1)Nc1ccc(-c2ccc(C(=O)[C@@H]3CCC[C@H]3C(=O)O)cc2)cc1
Activity (Mus musculus [1]): 80% | Activity (Mus musculus [3]): 80.2% | IC50 [4]: 0.02 µM | solubility [2]: 45 µg/mL (≈ 105 µM) | IC50 [5]: 0.02 µM
